One test concerns the target T1, human A2A receptors (Homo sapiens, UniProt P29274).
T1 construct: expressed in transfected cells; host or cells: HEK293
As to the kind of experiment: Inhibition of human A2A receptor in recombinant HEK293 cells, cAMP quantification (HTRF). Type of test: cell-based. Particulars: read-out: A2A (Category). On the procedure: (§1) The functional activities of human A2A and A2B receptors were determined by quantification of cAMP, being the second messenger for adenosine receptors.
(§2) After a 15 min incubation, HTRF reagents (cAMP dynamic 2, Cis Bio) were added and the cellular cAMP levels were determined using the ENVISION (Perkin Elmer) plate reader.

The target of a further test is T2, human A2B receptors (Homo sapiens, UniProt P29275).
T2 construct: expressed in transfected cells; host or cells: HEK293
T2 sequence (P29275 1-332): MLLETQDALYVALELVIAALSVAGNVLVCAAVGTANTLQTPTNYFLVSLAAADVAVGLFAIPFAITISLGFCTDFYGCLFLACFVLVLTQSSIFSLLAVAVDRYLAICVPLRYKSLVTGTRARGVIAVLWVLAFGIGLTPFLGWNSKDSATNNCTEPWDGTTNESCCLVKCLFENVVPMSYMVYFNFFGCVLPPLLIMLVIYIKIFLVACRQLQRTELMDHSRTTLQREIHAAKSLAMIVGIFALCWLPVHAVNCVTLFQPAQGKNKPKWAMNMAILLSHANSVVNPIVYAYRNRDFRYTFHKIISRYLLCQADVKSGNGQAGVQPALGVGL
As to the kind of experiment: Inhibition of human A2B receptor in recombinant HEK293 cells, cAMP quantification (HTRF). Conditions: read-out: A2B (Category). The test is classed as cell-based. As for the experimental part: as §1, §2
For orientation: TR-FRET usually uses a lanthanide donor and a delayed reading to cut background.

Molecules are shown by their SMILES.

T1 sequence (P29274 whole entry): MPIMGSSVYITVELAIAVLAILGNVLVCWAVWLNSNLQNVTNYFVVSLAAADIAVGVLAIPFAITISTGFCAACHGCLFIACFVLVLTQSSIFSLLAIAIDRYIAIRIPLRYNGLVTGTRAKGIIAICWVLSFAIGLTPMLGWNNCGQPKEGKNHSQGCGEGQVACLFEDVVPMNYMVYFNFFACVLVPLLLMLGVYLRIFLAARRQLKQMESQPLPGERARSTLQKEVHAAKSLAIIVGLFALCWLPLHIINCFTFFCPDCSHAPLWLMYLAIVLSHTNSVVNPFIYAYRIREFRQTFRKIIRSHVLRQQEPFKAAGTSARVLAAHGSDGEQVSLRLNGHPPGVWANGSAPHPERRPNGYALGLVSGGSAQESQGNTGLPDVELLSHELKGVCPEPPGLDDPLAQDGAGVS

For the compound `O=C(c1cc2c(cn1)c(Nc1cccc(F)n1)nn2CC(F)(F)F)N1CCCOCC1` [Compound 49, [3-[(6-fluoro-2-pyridyl)amino]-1-(2,2,2-trifluoroethyl)pyrazolo[4,3-c]pyridin-6-yl]-(1,4-oxazepan-4-yl)methanone], the IC50 at human A2A receptors and at human A2B receptors was < 0.1 µM in each case.
With `O=C(c1cc2c(cn1)c(Nc1cccc(Cl)n1)nn2CC(F)(F)F)N1CCCOCC1` [Compound 51, [3-[(6-chloro-2-pyridyl)amino]-1-(2,2,2-trifluoroethyl)pyrazolo[4,3-c]pyridin-6-yl]-(1,4-oxazepan-4-yl)methanone], the IC50 was < 0.1 µM on human A2A receptors and < 1 µM on human A2B receptors.
For `O=C(c1cc2c(cn1)c(Nc1ccccn1)nn2CC(F)(F)F)N1CCOCC(O)C1` (stereo not shown) [Compound 52, (6-hydroxy-1,4-oxazepan-4-yl)-[3-(2-pyridylamino)-1-(2,2,2-trifluoroethyl)pyrazolo[4,3-c]pyridin-6-yl]methanone], in that order: < 0.1 µM and < 0.1 µM.
The like results for `CC1(O)CCN(C(=O)c2cc3c(cn2)c(Nc2ccccn2)nn3CC(F)(F)F)CC1` [Compound 53, (4-hydroxy-4-methyl-1-piperidyl)-[3-(2-pyridylamino)-1-(2,2,2-trifluoroethyl)pyrazolo[4,3-c]pyridin-6-yl]methanone] were, in that order, < 0.1 µM and < 0.1 µM.
The like results for `[2H]C1([2H])COCCN(C(=O)c2cc3c(cn2)c(Nc2ccccn2)nn3CC(F)(F)F)C1` [Compound 59, (6,6-dideuterio-1,4-oxazepan-4-yl)-[3-(2-pyridylamino)-1-(2,2,2-trifluoroethyl)pyrazolo[4,3-c]pyridin-6-yl]methanone] were, in that order, < 0.1 µM and < 0.1 µM.
As to `[2H]C1([2H])COCCN(C(=O)c2cc3c(cn2)c(Nc2cc(F)ccn2)nn3CC(F)(F)F)C1` [Compound 60, (6,6-dideuterio-1,4-oxazepan-4-yl)-[3-[(4-fluoro-2-pyridyl)amino]-1-(2,2,2-trifluoroethyl)pyrazolo[4,3-c]pyridin-6-yl]methanone], the IC50 on human A2A receptors and at human A2B receptors was < 0.1 µM throughout.
With `O=C(c1cc2c(cn1)c(Nc1cnccn1)nn2CC(F)(F)F)N1CCCOCC1` [Compound 61, 1,4-oxazepan-4-yl-[3-(pyrazin-2-ylamino)-1-(2,2,2-trifluoroethyl)pyrazolo[4,3-c]pyridin-6-yl]methanone], the IC50 at human A2A receptors and at human A2B receptors was < 0.1 µM in each case.
On to `O=C(c1cc2c(cn1)c(Nc1cc(C(F)(F)F)ccn1)nn2CC(F)(F)F)N1CCCOCC1` [Compound 62, 1,4-oxazepan-4-yl-[1-(2,2,2-trifluoroethyl)-3-[[4-(trifluoromethyl)-2-pyridyl]amino]pyrazolo[4,3-c]pyridin-6-yl]methanone], for which the IC50 is < 0.1 µM at human A2A receptors and < 1 µM on human A2B receptors.
For `COc1ccnc(Nc2nn(CC(F)(F)F)c3cc(C(=O)N4CCCOCC4)ncc23)c1` [Compound 63, [3-[(4-methoxy-2-pyridyl)amino]-1-(2,2,2-trifluoroethyl)pyrazolo[4,3-c]pyridin-6-yl]-(1,4-oxazepan-4-yl)methanone], in that order: < 0.1 µM and < 0.1 µM.
The like results for `O=C(c1cc2c(cn1)c(Nc1cc(Cl)ccn1)nn2CC(F)(F)F)N1CCCOCC1` [Compound 64, [3-[(4-chloro-2-pyridyl)amino]-1-(2,2,2-trifluoroethyl)pyrazolo[4,3-c]pyridin-6-yl]-(1,4-oxazepan-4-yl)methanone] were, in that order, < 0.1 µM and < 0.1 µM.
For `O=C(c1cc2c(cn1)c(Nc1ccc(F)c(Cl)n1)nn2CC(F)(F)F)N1CCCOCC1` [Compound 65, [3-[(6-chloro-5-fluoro-2-pyridyl)amino]-1-(2,2,2-trifluoroethyl)pyrazolo[4,3-c]pyridin-6-yl]-(1,4-oxazepan-4-yl)methanone], in that order: < 0.1 µM and < 1 µM.
As to `O=C(c1cc2c(cn1)c(Nc1cc(Cl)c(F)cn1)nn2CC(F)(F)F)N1CCCOCC1` [Compound 66, [3-[(4-chloro-5-fluoro-2-pyridyl)amino]-1-(2,2,2-trifluoroethyl)pyrazolo[4,3-c]pyridin-6-yl]-(1,4-oxazepan-4-yl)methanone], the IC50 on human A2A receptors is < 0.1 µM; at human A2B receptors it was < 1 µM.
The like results for `Cc1ccnc(Nc2nn(CC(F)(F)F)c3cc(C(=O)N4CCCOCC4)ncc23)c1` [Compound 68, [3-[(4-methyl-2-pyridyl)amino]-1-(2,2,2-trifluoroethyl)pyrazolo[4,3-c]pyridin-6-yl]-(1,4-oxazepan-4-yl)methanone] were, in that order, < 0.1 µM and < 1 µM.
Consider `O=C(c1cc2c(cn1)c(Nc1cc(F)c(Cl)cn1)nn2CC(F)(F)F)N1CCCOCC1` [Compound 71, [3-[(5-chloro-4-fluoro-2-pyridyl)amino]-1-(2,2,2-trifluoroethyl)pyrazolo[4,3-c]pyridin-6-yl]-(1,4-oxazepan-4-yl)methanone], for which the IC50 on human A2A receptors and at human A2B receptors was < 0.1 µM each time.
`O=C(c1cc2c(cn1)c(Nc1ccncn1)nn2CC(F)(F)F)N1CCCOCC1` [Compound 73, [1,4]Oxazepan-4-yl-[3-(pyrimidin-4-ylamino)-1-(2,2,2-trifluoro-ethyl)-1H-pyrazolo[4,3-c]pyridin-6-yl]-methanone]: the results for the IC50 at human A2A receptors and on human A2B receptors were < 0.1 µM and < 1 µM, respectively.
The like results for `O=C(c1cc2c(cn1)c(Nc1cnccn1)nn2CC(F)(F)F)N1CCC(O)CC1` [Compound 74, (4-Hydroxy-piperidin-1-yl)-[3-(pyrazin-2-ylamino)-1-(2,2,2-trifluoro-ethyl)-1H-pyrazolo[4,3-c]pyridin-6-yl]-methanone] were, in that order, < 0.1 µM and < 0.1 µM.
The like results for `O=C(c1cc2c(cn1)c(Nc1cnc(Cl)cn1)nn2CC(F)(F)F)N1CCC(O)CC1` [Compound 75, [3-(5-Chloro-pyrazin-2-ylamino)-1-(2,2,2-trifluoro-ethyl)-1H-pyrazolo[4,3-c]pyridin-6-yl]-(4-hydroxy-piperidin-1-yl)-methanone] were, in that order, < 0.1 µM and < 0.1 µM.
For `O=C(c1cc2c(cn1)c(Nc1ccncn1)nn2CC(F)(F)F)N1CCC(O)CC1` [Compound 76, (4-Hydroxy-piperidin-1-yl)-[3-(pyrimidin-4-ylamino)-1-(2,2,2-trifluoro-ethyl)-1H-pyrazolo[4,3-c]pyridin-6-yl]-methanone], in that order: < 0.1 µM and < 1 µM.
For `CS(=O)(=O)Cn1nc(Nc2ccc(F)cn2)c2cnc(C(=O)N3CCCOCC3)cc21` [Compound 77, [3-(5-Fluoro-pyridin-2-ylamino)-1-methanesulfonylmethyl-1H-pyrazolo[4,3-c]pyridin-6-yl]-[1,4]oxazepan-4-yl-methanone], the IC50 on human A2A receptors and at human A2B receptors was < 0.1 µM throughout.
Turning to `CS(=O)(=O)Cn1nc(Nc2ccc(Cl)cn2)c2cnc(C(=O)N3CCCOCC3)cc21` [Compound 78, [3-(5-Chloro-pyridin-2-ylamino)-1-methanesulfonylmethyl-1H-pyrazolo[4,3-c]pyridin-6-yl]-[1,4]oxazepan-4-yl-methanone], the IC50 at human A2A receptors and on human A2B receptors was < 0.1 µM throughout.
Take `CS(=O)(=O)Cn1nc(Nc2cc(Cl)ccn2)c2cnc(C(=O)N3CCCOCC3)cc21` [Compound 79, [3-(4-Chloro-pyridin-2-ylamino)-1-methanesulfonylmethyl-1H-pyrazolo[4,3-c]pyridin-6-yl]-[1,4]oxazepan-4-yl-methanone]: the IC50 at human A2A receptors and at human A2B receptors was < 0.1 µM throughout.
Consider `O=C(c1cc2c(cn1)c(Nc1ccc(F)c(F)n1)nn2CC(F)(F)F)N1CCCOCC1` [Compound 80, [3-[(5,6-difluoro-2-pyridyl)amino]-1-(2,2,2-trifluoroethyl)pyrazolo[4,3-c]pyridin-6-yl]-(1,4-oxazepan-4-yl)methanone], for which the IC50 at human A2A receptors and at human A2B receptors was < 0.1 µM each time.
As for `COc1cc(Nc2nn(CC(F)(F)F)c3cc(C(=O)N4CCCOCC4)ncc23)ncc1F` [Compound 81, [3-[(5-fluoro-4-methoxy-2-pyridyl)amino]-1-(2,2,2-trifluoroethyl)pyrazolo[4,3-c]pyridin-6-yl]-(1,4-oxazepan-4-yl)methanone], the figures for the IC50 on human A2A receptors and at human A2B receptors were < 0.1 µM and < 1 µM, respectively.
The like results for `COc1ccc(Nc2nn(CC(F)(F)F)c3cc(C(=O)N4CCCOCC4)ncc23)nc1` [Compound 83, [3-(5-Methoxy-pyridin-2-ylamino)-1-(2,2,2-trifluoro-ethyl)-1H-pyrazolo[4,3-c]pyridin-6-yl]-[1,4]oxazepan-4-yl-methanone] were, in that order, < 0.1 µM and < 0.1 µM.
In the case of `O=C(c1cc2c(cn1)c(Nc1cncs1)nn2CC(F)(F)F)N1CCCOCC1` [Compound 84, [1,4]Oxazepan-4-yl-[3-(thiazol-5-ylamino)-1-(2,2,2-trifluoro-ethyl)-1H-pyrazolo[4,3-c]pyridin-6-yl]methanone], the IC50 on human A2A receptors and on human A2B receptors was < 0.1 µM throughout.
As to `O=C(c1cc2c(cn1)c(Nc1nccs1)nn2CC(F)(F)F)N1CCCOCC1` [Compound 85, [1,4]Oxazepan-4-yl-[3-(thiazol-2-ylamino)-1-(2,2,2-trifluoro-ethyl)-1H-pyrazolo[4,3-c]pyridin-6-yl]methanone], the IC50 on human A2A receptors and on human A2B receptors was < 0.1 µM each time.

Source of the values: patent US12194051B2, “5-azaindazole derivatives as adenosine receptor antagonists” (MERCK PATENT GMBH, priority 2018, dated 2025).
